Measured values as given in ChEMBL document CHEMBL4196011, “The lead optimization of the polyamine conjugate of flavonoid with a naphthalene motif: Synthesis and biological evaluation” (Eur J Med Chem, 2018).
Active and inactive are the calls of the source. No cut-off for these calls is given here.

What was measured:
[1] = system: Mus musculus; assay: Toxicity in Kunming mouse xenografted with […] H22 cells assessed as effect on spleen weight index at 30 mg/kg, iv administered for 7 consecutive days; type: organism-based; settings: in vivo
[2] = system: HepG2; assay: Cytotoxicity in human HepG2 cells assessed as gain in lysosomal mass/pH after 48 hrs by LysoTracker Red dye-based fluorescence assay; type: functional, cell-based
[3] = system: HCT-116; assay: Antiproliferative activity against human HCT116 cells after 48 hrs by MTT assay; type: functional, cell-based; settings: HCT-116, 48 h
[4] = system: HT-29; assay: Antiproliferative activity against human HT-29 cells after 48 hrs by MTT assay; type: functional, cell-based; settings: HT-29, 48 h
[5] = system: K562; assay: Antiproliferative activity against human K562 cells after 48 hrs by MTT assay; type: functional, cell-based; settings: K562, 48 h
[6] = system: HepG2; assay: Antiproliferative activity against human HepG2 cells after 48 hrs by MTT assay; type: functional, cell-based; settings: HepG2, 48 h
[7] = system: Mus musculus; assay: Toxicity in Kunming mouse xenografted with […] H22 cells assessed as effect on body weight at 30 mg/kg, iv administered for 7 consecutive days; type: organism-based; settings: in vivo
[8] = system: Mus musculus; assay: Toxicity in Kunming mouse xenografted with […] H22 cells assessed as effect on heart weight index at 30 mg/kg, iv administered for 7 consecutive days; type: organism-based; settings: in vivo
[9] = system: Mus musculus; assay: Toxicity in Kunming mouse xenografted with […] H22 cells assessed as effect on kidney weight index at 30 mg/kg, iv administered for 7 consecutive days; type: organism-based; settings: in vivo
[10] = Drug localization in mitochondria of human HepG2 cells at 7.5 uM after 8 hrs by MitoTracker Green dye-based confocal fluorescence microscopic analysis; type: ADME; settings: hepg2, 8 h
[11] = Drug localization in lysosomes of human HepG2 cells at 7.5 uM after 8 hrs by LysoTracker Red dye-based confocal fluorescence microscopic analysis; type: ADME, subcellular, Lysosome; settings: hepg2, 8 h
[12] = Drug localization in nucleus of human HepG2 cells at 7.5 uM after 8 hrs by Hoechst 33342 staining-based HCS analysis; type: ADME, subcellular; settings: hepg2, 8 h
[13] = system: HepG2; assay: Induction of apoptosis in human HepG2 cells assessed as necrotic cells at 2.5 uM after 8 hrs by Annexin V-FITC/propidium iodide staining-based flow cytometry (reference value: 0.40%); type: functional
[14] = system: HepG2; assay: Induction of apoptosis in human HepG2 cells assessed as viable cells at 2.5 uM after 8 hrs by Annexin V-FITC/propidium iodide staining-based flow cytometry (reference value: 97.43%); type: functional; settings: HepG2, 8 h, read-out: Activity
[15] = system: HepG2; assay: Induction of apoptosis in human HepG2 cells assessed as late apoptotic cells at 7.5 uM after 8 hrs by Annexin V-FITC/propidium iodide staining-based flow cytometry (reference value: 0.88%); type: functional
[16] = system: HepG2; assay: Induction of apoptosis in human HepG2 cells assessed as necrotic cells at 7.5 uM after 8 hrs by Annexin V-FITC/propidium iodide staining-based flow cytometry (reference value: 0.40%); type: functional
[17] = system: HepG2; assay: Induction of apoptosis in human HepG2 cells assessed as viable cells at 7.5 uM after 8 hrs by Annexin V-FITC/propidium iodide staining-based flow cytometry (reference value: 97.43%); type: functional; settings: HepG2, 8 h, read-out: Activity
[18] = system: HepG2; assay: Induction of apoptosis in human HepG2 cells assessed as viable cells at 5 uM after 8 hrs by Annexin V-FITC/propidium iodide staining-based flow cytometry (reference value: 97.43%); type: functional; settings: HepG2, 8 h, read-out: Activity
[19] = system: HepG2; assay: Induction of apoptosis in human HepG2 cells assessed as necrotic cells at 2.5 uM after 24 hrs by Annexin V-FITC/propidium iodide staining-based flow cytometry (reference value: 0.12%); type: functional
[20] = system: HepG2; assay: Induction of apoptosis in human HepG2 cells assessed as late apoptotic cells at 7.5 uM after 24 hrs by Annexin V-FITC/propidium iodide staining-based flow cytometry (reference value: 0.88%); type: functional
[21] = system: HepG2; assay: Induction of apoptosis in human HepG2 cells assessed as necrotic cells at 7.5 uM after 24 hrs by Annexin V-FITC/propidium iodide staining-based flow cytometry (reference value: 0.12%); type: functional
[22] = system: HepG2; assay: Induction of apoptosis in human HepG2 cells assessed as necrotic cells at 7.5 uM after 36 hrs by Annexin V-FITC/propidium iodide staining-based flow cytometry (reference value: 0.24%); type: functional
[23] = system: HepG2; assay: Induction of apoptosis in human HepG2 cells assessed as necrotic cells at 5 uM after 36 hrs by Annexin V-FITC/propidium iodide staining-based flow cytometry (reference value: 0.24%); type: functional
[24] = system: HepG2; assay: Induction of apoptosis in human HepG2 cells assessed as early apoptotic cells at 2.5 uM after 48 hrs by Annexin V-FITC/propidium iodide staining-based flow cytometry (reference value: 1.30%); type: functional
[25] = system: HepG2; assay: Induction of apoptosis in human HepG2 cells assessed as viable cells at 2.5 uM after 48 hrs by Annexin V-FITC/propidium iodide staining-based flow cytometry (reference value: 96.67%); type: functional; settings: HepG2, 48 h, read-out: Activity
[26] = system: HepG2; assay: Induction of apoptosis in human HepG2 cells assessed as early apoptotic cells at 7.5 uM after 48 hrs by Annexin V-FITC/propidium iodide staining-based flow cytometry (reference value: 1.30%); type: functional
[27] = system: HepG2; assay: Induction of apoptosis in human HepG2 cells assessed as late apoptotic cells at 7.5 uM after 48 hrs by Annexin V-FITC/propidium iodide staining-based flow cytometry (reference value: 0.95%); type: functional
[28] = system: HepG2; assay: Induction of apoptosis in human HepG2 cells assessed as necrotic cells at 7.5 uM after 48 hrs by Annexin V-FITC/propidium iodide staining-based flow cytometry (reference value: 0.08%); type: functional
[29] = system: HepG2; assay: Induction of apoptosis in human HepG2 cells assessed as late apoptotic cells at 5 uM after 48 hrs by Annexin V-FITC/propidium iodide staining-based flow cytometry (reference value: 0.95%); type: functional
[30] = system: HepG2; assay: Induction of apoptosis in human HepG2 cells assessed as increase in Bax protein expression after 48 hrs by immunofluorescence staining-based high content screening assay; type: functional, cell-based
[31] = biological target: MAP kinase p38 (Homo sapiens) (UniProt O15264+Q15759+Q16539+P53778); assay: Induction of p38 phosphorylation in human HepG2 cells after 48 hrs by immunofluorescence staining-based high content screening assay; type: cell-based
[32] = biological target: c-Jun N-terminal kinase, JNK (Homo sapiens) (UniProt P45983+P53779+P45984); assay: Induction of JNK phosphorylation in human HepG2 cells after 48 hrs by immunofluorescence staining-based high content screening assay; type: cell-based
[33] = system: HepG2; assay: Induction of apoptosis in human HepG2 cells at 5 uM preincubated cells with autophagy inhibitor 3-MA for 2 hrs followed by compound addition measured after 48 hrs by Annexin V-FITC/propidium iodide staining-based flow cytometry relative to control; type: functional; parameters: scale not given: the % may be the effect or the level left
[34] = system: HepG2; assay: Induction of autophagy in human HepG2 cells assessed as upregulation of beclin1 expression at 5 uM by Western blot analysis; type: functional, cell-based
[35] = system: HepG2; assay: Induction of autophagy in human HepG2 cells assessed as upregulation of beclin1 expression at 5 uM in presence of autophagy inhibitor 3-MA by Western blot analysis; type: functional, cell-based
[36] = Drug uptake in human HepG2 cells assessed as PAT-mediated compound uptake at 10 uM after 8 hrs in presence of spermidine by HCS analysis; type: ADME, cell-based; settings: hepg2, 8 h
[37] = system: HepG2; assay: Induction of autophagy in human HepG2 cells assessed as formation of autolysosomes after 48 hrs by MDC staining-based assay; type: functional, cell-based

## COc1ccc2cc(-c3oc4c(CNCCCCN)cccc4c(=O)c3OC)ccc2c1Br.Cl.Cl
[1]
  Activity: Non-Toxic
[2]
  Activity: Dose-dependent effect
[3]
  IC50: 15.1 µM
[4]
  IC50: 14.7 µM
[5]
  IC50: 13.4 µM
[6]
  IC50: 7.1 µM
[7]
  Activity: Non-Toxic
[8]
  Activity: Non-Toxic
[9]
  Activity: Non-Toxic
[10]
  Drug uptake: Active
[11]
  Drug uptake: Not Active
[12]
  Drug uptake: Not Active
[13]
  Activity: 0.3%
[14]
  viability at 2.5 µM: 96.1%
[15]
  Activity: 3.38%
[16]
  Activity: 0.05%
[17]
  viability at 7.5 µM: 78.5%
[18]
  viability at 5 µM: 93%
[19]
  Activity: 0%
[20]
  Activity: 9.48%
[21]
  Activity: 4.51%
[22]
  Activity: 0.26%
[23]
  Activity: 0.09%
[24]
  Activity: 21.8%
[25]
  viability at 2.5 µM: 74.1%
[26]
  Activity: 23.02%
[27]
  Activity: 31.22%
[28]
  Activity: 0.17%
[29]
  Activity: 9.87%
[30]
  Activity: Dose-dependent effect
[31]
  Activity: Dose-dependent effect
[32]
  Activity: Dose-dependent effect
[33]
  Activity: 53.07%
[34]
  Activity: Active
[35]
  Activity: inactive
[36]
  Drug uptake: Not Active
[37]
  Activity: Dose-dependent effect
